This note sets out measurements from ChEMBL document CHEMBL4420071, “Method for treating skin with retinoids and retinoid boosters” (2013).

The species named for assay [1] is Homo sapiens. Description: Inhibition of transglutaminase in human keratinocytes assessed as mean transglutaminase activity level at 4.1 10^-5M in presence of 10 uM retinal relative to retinal alone. It is filed as cell-based. More on the design: scale not given: the % may be the effect or the level left.
The species entered for assay [2] is Homo sapiens. Briefly: Inhibition of transglutaminase in human keratinocytes assessed as mean transglutaminase activity level at 5.0 10^-8M in presence of 10 uM retinal relative to retinal alone. It is filed as cell-based. More on the design: scale not given: the % may be the effect or the level left.
For assay [3], the species on record is Homo sapiens. Briefly: Inhibition of transglutaminase in human keratinocytes assessed as mean transglutaminase activity level at 3.73 10^-4M in presence of 10 uM retinal relative to retinal alone. Format: cell-based. On the set-up: scale not given: the % may be the effect or the level left.
The species named for assay [4] is Homo sapiens. Description: Inhibition of transglutaminase in human keratinocytes assessed as mean transglutaminase activity level at 1.65 10^-7M in presence of 10 uM retinal relative to retinal alone. On the set-up: scale not given: the % may be the effect or the level left. It is filed as cell-based.
For assay [5], the species on record is Homo sapiens. Description: Inhibition of transglutaminase in human keratinocytes assessed as mean transglutaminase activity level at 1.1 10^-4M in presence of 10 uM retinal relative to retinal alone. On the set-up: scale not given: the % may be the effect or the level left. Format: cell-based.
The species entered for assay [6] is Homo sapiens. Description: Inhibition of transglutaminase in human keratinocytes assessed as mean transglutaminase activity level at 1.23 10^-5M in presence of 10 uM retinal relative to retinal alone. On the set-up: scale not given: the % may be the effect or the level left. It is filed as cell-based.
The species entered for assay [7] is Homo sapiens. Briefly: Inhibition of transglutaminase in human keratinocytes assessed as mean transglutaminase activity level at 1.0 10^-3M in presence of 10 uM retinal relative to retinal alone. It is filed as cell-based. More on the design: scale not given: the % may be the effect or the level left.
The species named for assay [8] is Homo sapiens. Briefly: Inhibition of transglutaminase in human keratinocytes assessed as mean transglutaminase activity level at 8.2 10^-6M in presence of 10 uM retinal relative to retinal alone. Format: cell-based. More on the design: scale not given: the % may be the effect or the level left.
The species named for assay [9] is Homo sapiens. Briefly: Inhibition of transglutaminase in human keratinocytes assessed as mean transglutaminase activity level at 1.1 10^-8M in presence of 10 uM retinal relative to retinal alone. More on the design: scale not given: the % may be the effect or the level left. It is filed as cell-based.
The species entered for assay [10] is Homo sapiens. Briefly: Inhibition of transglutaminase in human keratinocytes assessed as mean transglutaminase activity level at 3.29 10^-7M in presence of 10 uM retinal relative to retinal alone. Format: cell-based. More on the design: scale not given: the % may be the effect or the level left.
The target of assay [11] is T1, Cellular retinoic acid-binding protein 2 (Homo sapiens) (UniProt P29373).
T1 sequence (whole entry): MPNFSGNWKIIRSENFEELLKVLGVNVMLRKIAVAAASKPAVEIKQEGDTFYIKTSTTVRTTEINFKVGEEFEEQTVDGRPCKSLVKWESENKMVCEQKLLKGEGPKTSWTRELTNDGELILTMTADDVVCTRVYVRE
Description: Inhibition of radioactive all-trans retinoic acid binding to CRABP2 (unknown origin) expressed in Escherichia coli BLR(DE3)pLys incubated for 1 hr by scintillation counting assay. The note with it: concentration not given here.

For assay [12], the species on record is Homo sapiens.
Description: Inhibition of transglutaminase in human keratinocytes in presence of 10 uM retinal relative to retinal alone
The species entered for assay [13] is Homo sapiens. Description: Inhibition of transglutaminase in human keratinocytes assessed as mean transglutaminase activity level at 3.3 10^-6M in presence of 10 uM retinal relative to retinal alone. On the set-up: scale not given: the % may be the effect or the level left. Format: cell-based.
For assay [14], the species on record is Homo sapiens. Briefly: Inhibition of transglutaminase in human keratinocytes assessed as mean transglutaminase activity level at 8.2 10^-8M in presence of 10 uM retinal relative to retinal alone. Format: cell-based. On the set-up: scale not given: the % may be the effect or the level left.
For assay [15], the species on record is Homo sapiens. Description: Inhibition of transglutaminase in human keratinocytes assessed as mean transglutaminase activity level at 4.1 10^-8M in presence of 10 uM retinal relative to retinal alone. Format: cell-based. On the set-up: scale not given: the % may be the effect or the level left.
For assay [16], the species on record is Homo sapiens. Briefly: Inhibition of transglutaminase in human keratinocytes assessed as mean transglutaminase activity level at 1 10^-5M in presence of 10 uM retinal relative to retinal alone. Format: cell-based. More on the design: scale not given: the % may be the effect or the level left.
The species named for assay [17] is Homo sapiens. Description: Inhibition of transglutaminase in human keratinocytes assessed as mean transglutaminase activity level at 3.73 10^-7M in presence of 10 uM retinal relative to retinal alone. Format: cell-based. On the set-up: scale not given: the % may be the effect or the level left.
For assay [18], the species on record is Homo sapiens. Description: Inhibition of transglutaminase in human keratinocytes assessed as mean transglutaminase activity level at 1.65 10^-9M in presence of 10 uM retinal relative to retinal alone. It is filed as cell-based. More on the design: scale not given: the % may be the effect or the level left.
The species entered for assay [19] is Homo sapiens. Briefly: Inhibition of transglutaminase in human keratinocytes assessed as mean transglutaminase activity level at 1.23 10^-7M in presence of 10 uM retinal relative to retinal alone. Format: cell-based. More on the design: scale not given: the % may be the effect or the level left.
Assay [20] is filed under the species Rattus norvegicus. Description: Activation of retinol dehydrogenase in Sprague-Dawley rat liver microsomes assessed as increase in enzyme activity at 100 uM using all-trans retinol and NADP by HPLC analysis relative to control.
The species entered for assay [21] is Homo sapiens. Briefly: Inhibition of transglutaminase in human keratinocytes assessed as mean transglutaminase activity level at 1.1 10^-6M in presence of 10 uM retinal relative to retinal alone. It is filed as cell-based. More on the design: scale not given: the % may be the effect or the level left.
For assay [22], the species on record is Homo sapiens. Briefly: Inhibition of transglutaminase in human keratinocytes assessed as mean transglutaminase activity level at 3 10^-5M in presence of 10 uM retinal relative to retinal alone. Format: cell-based. More on the design: scale not given: the % may be the effect or the level left.
Assay [23] is filed under the species Homo sapiens. Briefly: Inhibition of transglutaminase in human keratinocytes assessed as mean transglutaminase activity level at 9.0 10^-3M in presence of 10 uM retinal relative to retinal alone. Format: cell-based. More on the design: scale not given: the % may be the effect or the level left.
The species named for assay [24] is Rattus norvegicus. Briefly: Inhibition of retinal reductase in Sprague-Dawley rat liver microsomes at 100 uM using all-trans retinaldehyde and NADPH by HPLC analysis relative to control.
For assay [25], the species on record is Homo sapiens. Description: Inhibition of transglutaminase in human keratinocytes assessed as mean transglutaminase activity level at 3.0 10^-3M in presence of 10 uM retinal relative to retinal alone. Format: cell-based. More on the design: scale not given: the % may be the effect or the level left.
The species entered for assay [26] is Homo sapiens. Briefly: Inhibition of transglutaminase in human keratinocytes assessed as mean transglutaminase activity level at 4.4 10^-5M in presence of 10 uM retinal relative to retinal alone. Format: cell-based. On the set-up: scale not given: the % may be the effect or the level left.
The species entered for assay [27] is Homo sapiens. Briefly: Inhibition of transglutaminase in human keratinocytes assessed as mean transglutaminase activity level at 4.89 10^-6M in presence of 10 uM retinal relative to retinal alone. More on the design: scale not given: the % may be the effect or the level left. It is filed as cell-based.
The species entered for assay [28] is Homo sapiens. Description: Inhibition of transglutaminase in human keratinocytes assessed as mean transglutaminase activity level at 1.63 10^-6M in presence of 10 uM retinal relative to retinal alone. It is filed as cell-based. More on the design: scale not given: the % may be the effect or the level left.
The species entered for assay [29] is Homo sapiens. Description: Inhibition of transglutaminase in human keratinocytes assessed as mean transglutaminase activity level at 1.8 10^-7M in presence of 10 uM retinal relative to retinal alone. It is filed as cell-based. More on the design: scale not given: the % may be the effect or the level left.
For assay [30], the species on record is Homo sapiens. Briefly: Inhibition of transglutaminase in human keratinocytes assessed as mean transglutaminase activity level at 5.43 10^-7M in presence of 10 uM retinal relative to retinal alone. More on the design: scale not given: the % may be the effect or the level left. Format: cell-based.
For assay [31], the species on record is Homo sapiens. Description: Inhibition of transglutaminase in human keratinocytes assessed as mean transglutaminase activity level at 2.4 10^-9M in presence of 10 uM retinal relative to retinal alone. Format: cell-based. More on the design: scale not given: the % may be the effect or the level left.
Assay [32] is filed under the species Homo sapiens. Description: Inhibition of transglutaminase in human keratinocytes assessed as mean transglutaminase activity level at 1.47 10^-5M in presence of 10 uM retinal relative to retinal alone. It is filed as cell-based. More on the design: scale not given: the % may be the effect or the level left.
Assay [33] is filed under the species Homo sapiens. Briefly: Inhibition of transglutaminase in human keratinocytes assessed as mean transglutaminase activity level at 6 10^-8M in presence of 10 uM retinal relative to retinal alone. On the set-up: scale not given: the % may be the effect or the level left. Format: cell-based.
Assay [34] is filed under the species Homo sapiens. Description: Inhibition of transglutaminase in human keratinocytes assessed as mean transglutaminase activity level at 1.2 10^-8M in presence of 10 uM retinal relative to retinal alone. Format: cell-based. On the set-up: scale not given: the % may be the effect or the level left.

`CC(C)CCCCCCCCCCCCCCC(=O)O`: the Activity was 67% in the assay listed under Homo sapiens [1]; 78% in the assay filed under Homo sapiens [2]; -5.3% in the assay filed under Homo sapiens [3]; 95% in the assay filed under Homo sapiens [4]; 1.2% in the assay filed under Homo sapiens [5]; 80% in the assay listed under Homo sapiens [6]. The Activity was -8.6% in the assay listed under Homo sapiens [7], 103% in the assay listed under Homo sapiens [8], 78% in the assay filed under Homo sapiens [9] and 123% in the assay filed under Homo sapiens [10]. In [11], the inhibition was more than 50%. This molecule also returned an IC20 in the assay listed under Homo sapiens [12] of 6.23 ×10⁻⁵ M.
As for `CCCCCCCC/C=C\CCCCCCCCCCCCCC(=O)N[C@@H](COP(=O)([O-])OCC[N+](C)(C)C)[C@H](O)/C=C/CCCCCCCCCCCCC`, the Activity was determined as 76.4% in the assay filed under Homo sapiens [13]; 115% in the assay filed under Homo sapiens [14]; 74.6% in the assay filed under Homo sapiens [15]; 77.8% in the assay listed under Homo sapiens [16]; 91.6% in the assay listed under Homo sapiens [17]; 68.4% in the assay filed under Homo sapiens [18]. Also, the Activity in the assay listed under Homo sapiens [19] worked out at 70%; in the assay filed under Rattus norvegicus [20], 26%; in the assay filed under Homo sapiens [21] it was 98.8%; in the assay filed under Homo sapiens [22] it was 45%.
Consider `CC/C=C\C/C=C\C/C=C\CCCCCCCC(=O)O`, for which the Activity in the assay filed under Homo sapiens [23] was -11%; in the assay filed under Homo sapiens [1] it was 65.9%; in the assay listed under Homo sapiens [3], 68%; in the assay listed under Homo sapiens [4], 77%; in the assay listed under Homo sapiens [5], -23%; in the assay filed under Homo sapiens [6], 94.9%. The Activity in the assay filed under Homo sapiens [7] was -7.5%; in the assay listed under Homo sapiens [8], 119%; in the assay filed under Homo sapiens [10] it was 98%; in the assay filed under Homo sapiens [25] it was -5.7%. The same molecule returned an inhibition in the assay listed under Rattus norvegicus [24] of 54%. The molecule also gave an IC20 in the assay listed under Homo sapiens [12] of 1.21 ×10⁻⁴ M.
For the molecule `CCCCCCCC/C=C\CCCCCCCC(=O)OC[C@H](COP(=O)([O-])OCC[N+](C)(C)C)OC(=O)CCCCCCCCCCCCCCC`, the Activity in the assay filed under Homo sapiens [26] was found to be 90.9%; in the assay filed under Homo sapiens [27], 70.1%; in the assay filed under Homo sapiens [28], 98.8%; in the assay listed under Homo sapiens [29], 75.9%; in the assay filed under Homo sapiens [30], 86.7%; in the assay listed under Homo sapiens [31], 85.5%. Also, the Activity was 120% in the assay filed under Homo sapiens [32], 87.8% in the assay filed under Homo sapiens [33], 159% in the assay filed under Homo sapiens [34] and 21% in the assay filed under Rattus norvegicus [20].
As for `CCCCC/C=C\C/C=C\CCCCCCCC(=O)O`, the Activity in the assay listed under Homo sapiens [23] was -6%; in the assay listed under Homo sapiens [1] it was 76.8%; in the assay filed under Homo sapiens [3], 79.2%; in the assay listed under Homo sapiens [4] it was 106%; in the assay filed under Homo sapiens [5], 4.4%; in the assay filed under Homo sapiens [6], 62.6%. Also, the Activity in the assay filed under Homo sapiens [7] is -16.4%; in the assay listed under Homo sapiens [8], 146%; in the assay filed under Homo sapiens [10] it was 60.2%; in the assay filed under Homo sapiens [25] it was 0.1%. In addition, the inhibition in the assay listed under Rattus norvegicus [24] stood at 62%. The molecule further registered an IC20 in the assay listed under Homo sapiens [12] of 8.95 ×10⁻⁵ M.
